Results as given in the supplement of paper PMC11061612.

Experiments:
[1] = system: G-402 (Other Solid Carcinomas); assay: combination Emax (second highest fraction inhibited in the dose matrix, 72 h); higher = more inhibition; extreme values may be limits of the assay
Method in brief: (§1)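 Cell lines grown in DMEM/F12 or RPMI with 10% FBS were plated in 1536-well plates and held 24 hours at 37°C, 5% CO2 before 72 hours of exposure to two-drug dose matrices, with DMSO typically at 0.2%. CellTiter-Glo 2.0 luminescence gave viability, which was converted to inhibition. Vehicle wells were set to 0 and blank wells to 1. Combination Emax is the second-highest inhibition in the matrix, and Bliss excess is the observed combination effect minus the expected EA + EB − EA·EB, where EA and EB are the single-agent effects.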

[2] = system: HT55 (Colorectal Carcinoma); assay: Bliss excess, mean over the matrix (fraction); higher = more synergy
Method in brief: as §1

[3] = system: GCT (Other Solid Carcinomas); assay: as above
Method in brief: as §1

[4] = system: COLO-792 (Melanoma); assay: as above
Method in brief: as §1

[5] = system: NCI-H716 (Colorectal Carcinoma); assay: as above
Method in brief: as §1

[6] = system: DMS-53 (Small Cell Lung Carcinoma); assay: as above
Method in brief: as §1

[7] = system: A204 (Rhabdomyosarcoma); assay: as above
Method in brief: as §1

[8] = system: HCC1428 (Breast Carcinoma); assay: as above
Method in brief: as §1

[9] = system: EW-16 (Ewing's Sarcoma); assay: as above
Method in brief: as §1

[10] = system: A253 (Head and Neck Carcinoma); assay: as above
Method in brief: as §1

[11] = system: 5637 (Bladder Carcinoma); assay: as above
Method in brief: as §1

[12] = system: JVM-2 (B-Cell Non-Hodgkin's Lymphoma); assay: as above
Method in brief: as §1

[13] = system: CESS (Acute Myeloid Leukemia); assay: as above
Method in brief: as §1

[14] = system: G-402 (Other Solid Carcinomas); assay: as above
Method in brief: as §1

[15] = system: TE-10 (Esophageal Squamous Cell Carcinoma); assay: as above
Method in brief: as §1

[16] = system: EPLC-272H (Other Solid Carcinomas); assay: as above
Method in brief: as §1

[17] = system: DU-4475 (Breast Carcinoma); assay: as above
Method in brief: as §1

[18] = system: JIMT-1 (Breast Carcinoma); assay: as above
Method in brief: as §1

[19] = system: Jurkat (T-Lymphoblastic Leukemia); assay: as above
Method in brief: as §1

[20] = system: CAL-27 (Oral Cavity Carcinoma); assay: as above
Method in brief: as §1
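Throughout, for Bliss excess, mean over the matrix: after 72 h of two-drug dosing.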

| SMILES | combination Emax [1] | Bliss excess [2] | Bliss excess [3] | Bliss excess [4] | Bliss excess [5] | Bliss excess [6] | Bliss excess [7] | Bliss excess [8] | Bliss excess [9] | Bliss excess [10] | Bliss excess [11] | Bliss excess [12] | Bliss excess [13] | Bliss excess [14] | Bliss excess [15] | Bliss excess [16] | Bliss excess [17] | Bliss excess [18] | Bliss excess [19] | Bliss excess [20] |
| --- | --- | --- | --- | --- | --- | --- | --- | --- | --- | --- | --- | --- | --- | --- | --- | --- | --- | --- | --- | --- |
| CN(CCO)CC[C@H](CSc1ccccc1)Nc1ccc(S(=O)(=O)NC(=O)c2ccc(N3CCC([C@@H](O)c4ccccc4-c4ccc(Cl)cc4)CC3)cc2)cc1S(=O)(=O)C(F)(F)F [AZD4320] + C1CN(CCC1(C(=O)N[C@@H](CCO)C2=CC=C(C=C2)Cl)N)C3=NC=NC4=C3C=CN4 [Capivasertib] (first compound max 1 µM, 7x7, partner max 3 µM) | 0.327 | -0.0469 | -0.021 | 0.0021 | -0.0262 | -0.0195 | -0.0393 | -0.0092 | -0.0469 | -0.0035 | -0.0471 | -0.0068 | 0.0517 | -0.0262 | -0.0212 | -0.0089 | 0.069 | -0.0424 | -0.0203 | -0.0362 |
| CN(CCO)CC[C@H](CSc1ccccc1)Nc1ccc(S(=O)(=O)NC(=O)c2ccc(N3CCC([C@@H](O)c4ccccc4-c4ccc(Cl)cc4)CC3)cc2)cc1S(=O)(=O)C(F)(F)F [AZD4320] + C=CCn1c(=O)c2cnc(Nc3ccc(N4CCN(C)CC4)cc3)nc2n1-c1cccc(C(C)(C)O)n1 [AZD1775] (first compound max 1 µM, partner max 1 µM) | 0.491 | 0.0167 | -0.0363 | 0.0939 | 0.0021 | 0.0817 | -0.0304 | 0.0369 | 0.033 | 0.0503 | 0.0437 | 0.0965 | 0.0873 | -0.0345 | -0.0084 | -0.0069 | 0.0013 | 0.0363 | 0.0568 | -0.0226 |
| CN(CCO)CC[C@H](CSc1ccccc1)Nc1ccc(S(=O)(=O)NC(=O)c2ccc(N3CCC([C@@H](O)c4ccccc4-c4ccc(Cl)cc4)CC3)cc2)cc1S(=O)(=O)C(F)(F)F [AZD4320] + CCN(CCO)CCCOc1ccc2c(Nc3cc(CC(=O)Nc4cccc(F)c4)[nH]n3)ncnc2c1 [AZD2811] (first compound max 1 µM, 7x7, partner max 1 µM) | 0.776 | -0.0005 | -0.0089 | 0.0627 | -0.0242 | -0.0067 | -0.0553 | 0.16 | 0.14 | 0.0364 | -0.0117 | 0.0677 | 0.164 | 0.0415 | 0.038 | 0.0873 | 0.0738 | 0.0004 | 0.0105 | 0.0635 |
| CN(CCO)CC[C@H](CSc1ccccc1)Nc1ccc(S(=O)(=O)NC(=O)c2ccc(N3CCC([C@@H](O)c4ccccc4-c4ccc(Cl)cc4)CC3)cc2)cc1S(=O)(=O)C(F)(F)F [AZD4320] + C[C@@H]1COCCN1C2=NC(=NC(=C2)C3(CC3)[S@](=N)(=O)C)C4=C5C=CNC5=NC=C4 [AZD6738] (first compound max 1 µM, 7x7, partner max 10 µM) | 0.84 | 0.0093 | -0.0313 | -0.105 | -0.0311 | 0.0446 | -0.0207 | 0.0184 | -0.101 | 0.0045 | -0.05 | 0.0102 | 0.02 | -0.0805 | -0.0265 | -0.0244 | 0.0521 | 0.0079 | -0.0112 | -0.0544 |
| CN(CCO)CC[C@H](CSc1ccccc1)Nc1ccc(S(=O)(=O)NC(=O)c2ccc(N3CCC([C@@H](O)c4ccccc4-c4ccc(Cl)cc4)CC3)cc2)cc1S(=O)(=O)C(F)(F)F [AZD4320] + C[C@@H](Nc1cc(F)cc(F)c1)c1cc(C(=O)N(C)C)cc2c(=O)cc(N3CCOCC3)oc12 [AZD8186] (first compound max 1 µM, 7x7, partner max 3 µM) | 0.681 | -0.0003 | 0.0052 | 0.0763 | 0.0234 | 0.0138 | 0.0119 | 0.0149 | -0.0129 | 0.0229 | -0.0028 | 0.0133 | -0.0209 | 0.0818 | 0.0157 | 0.0633 | 0.0131 | 0.0064 | 0.0576 | 0.0005 |
| CN(CCO)CC[C@H](CSc1ccccc1)Nc1ccc(S(=O)(=O)NC(=O)c2ccc(N3CCC([C@@H](O)c4ccccc4-c4ccc(Cl)cc4)CC3)cc2)cc1S(=O)(=O)C(F)(F)F [AZD4320] + Cn1cnc2c(F)c(Nc3ccc(Br)cc3Cl)c(C(=O)NOCCO)cc21 [Selumetinib] (first compound max 1 µM, 7x7, partner max 3 µM) | 0.553 | 0.0074 | 0.0789 | 0.0279 | – | 0.0964 | -0.0054 | 0.0011 | 0.076 | 0.0339 | -0.0332 | 0.025 | -0.0701 | 0.0153 | -0.0187 | 0.0108 | 0.0444 | 0.0367 | 0.0229 | 0.0321 |
| COc1nnc2ccc(N3CCC(c4ccc(OCCN5CCN(C)C(=O)[C@H]5C)cc4)CC3)nn12 [AZD5153] + CN(CC[C@H](CSC1=CC=CC=C1)NC2=C(C=C(C=C2)S(=O)(=O)NC(=O)C3=CC=C(C=C3)N4CCC(CC4)[C@H](C5=CC=CC=C5C6=CC=C(C=C6)Cl)O)S(=O)(=O)C(F)(F)F)CCO [AZD4320] (first compound max 1 µM, 7x7, partner max 1 µM) | 0.846 | -0.0021 | 0.0204 | 0.0427 | -0.0394 | -0.0168 | 0.0084 | 0.0114 | 0.0851 | 0.0043 | 0.122 | 0.0973 | 0.0356 | 0.0157 | – | -0.04 | 0.0779 | 0.0486 | 0.041 | 0.0151 |
| Cc1nc(Nc2ncc(C(=O)Nc3c(C)cccc3Cl)s2)cc(N2CCN(CCO)CC2)n1 [Dasatinib] + CC(=O)Nc1cccc(-n2c(=O)n(C3CC3)c(=O)c3c(Nc4ccc(I)cc4F)n(C)c(=O)c(C)c32)c1 [Trametinib] (first compound max 2 µM, 7x7, partner max 1 µM) | 0.846 | -0.032 | -0.119 | -0.0726 | -0.0355 | -0.0423 | -0.0955 | -0.0334 | -0.0358 | -0.189 | 0.0923 | -0.0158 | -0.0622 | -0.0618 | – | -0.0746 | 0.011 | 0.0276 | -0.0746 | -0.053 |
| COc1cc2ncnc(Nc3ccc(F)c(Cl)c3)c2cc1OCCCN1CCOCC1 [Gefitinib] + CC(C)n1c(=O)n(C)c2cnc3cc(F)c(-c4ccc(OCCCN5CCCCC5)nc4)cc3c21 [AZD1390] (first compound max 10 µM, 7x7, partner max 0.3 µM) | 0.214 | -0.0393 | -0.065 | -0.0612 | -0.0353 | -0.0243 | -0.0563 | -0.0393 | -0.0566 | -0.0551 | -0.0467 | -0.0645 | -0.0386 | -0.0659 | – | -0.0207 | -0.0427 | -0.0248 | -0.0756 | -0.0668 |
| CC(=O)c1c(C)c2cnc(Nc3ccc(N4CCNCC4)cn3)nc2n(C2CCCC2)c1=O [Palbociclib] + CN(CC[C@H](CSC1=CC=CC=C1)NC2=C(C=C(C=C2)S(=O)(=O)NC(=O)C3=CC=C(C=C3)N4CCC(CC4)[C@H](C5=CC=CC=C5C6=CC=C(C=C6)Cl)O)S(=O)(=O)C(F)(F)F)CCO [AZD4320] (first compound max 10 µM, 7x7, partner max 1 µM) | 0.781 | -0.043 | -0.0137 | -0.0863 | -0.0417 | 0.038 | -0.0397 | -0.082 | -0.127 | -0.101 | -0.0373 | -0.0143 | -0.0225 | -0.0503 | – | -0.0283 | 0.0318 | -0.0507 | -0.0316 | -0.0667 |
| C[C@@H](c1ccc2nccn2c1)n1nnc2ncc(-c3cnn(C)c3)nc21 [Savolitinib] + CC1(C)CCC(CN2CCN(c3ccc(C(=O)NS(=O)(=O)c4ccc(NCC5CCOCC5)c([N+](=O)[O-])c4)c(Oc4cnc5[nH]ccc5c4)c3)CC2)=C(c2ccc(Cl)cc2)C1 [Venetoclax] (first compound max 1 µM, 7x7, partner max 1 µM) | 0.131 | -0.0562 | -0.0727 | -0.0601 | -0.0423 | -0.0446 | -0.0629 | -0.0219 | -0.0873 | -0.0524 | -0.0523 | -0.0472 | -0.0517 | -0.067 | – | -0.0604 | -0.0533 | -0.0354 | -0.0723 | -0.0571 |
| C[C@@H](c1ccc2nccn2c1)n1nnc2ncc(-c3cnn(C)c3)nc21 [Savolitinib] + CN(CC[C@H](CSC1=CC=CC=C1)NC2=C(C=C(C=C2)S(=O)(=O)NC(=O)C3=CC=C(C=C3)N4CCC(CC4)[C@H](C5=CC=CC=C5C6=CC=C(C=C6)Cl)O)S(=O)(=O)C(F)(F)F)CCO [AZD4320] (first compound max 1 µM, 7x7, partner max 1 µM) | 0.187 | -0.0439 | -0.0527 | 0.0139 | -0.0422 | -0.036 | -0.0484 | -0.0206 | -0.0994 | -0.0569 | -0.057 | -0.0313 | -0.001 | -0.0639 | – | -0.0701 | -0.0352 | -0.0427 | -0.0638 | -0.0514 |
| C[C@@H](c1ccc2nccn2c1)n1nnc2ncc(-c3cnn(C)c3)nc21 [Savolitinib] + Cc1c2c(nn1C)CSCc1cc(n(C)n1)CSc1cc(c3ccccc3c1)OCCCc1c(C(=O)O)n(C)c3c-2c(Cl)ccc13 [AZD5991] (first compound max 1 µM, 7x7, partner max 1 µM) | 0.409 | -0.0697 | -0.054 | -0.0446 | -0.0572 | -0.0359 | -0.0502 | -0.0039 | -0.032 | -0.0738 | -0.0456 | -0.021 | -0.048 | -0.0611 | – | -0.0128 | 0.007 | -0.0551 | -0.103 | -0.0839 |
